Here are results for two compounds from patent EP0326490B2, “Synthetic peptides and mixtures thereof for detecting HIV antibodies” (ADALTIS INC., priority 1988, dated 2004).

The structures appear in SMILES notation. Positions of bridges follow the written chain, without caps; N, C: chain ends. Residues, ends and D or L forms follow the SMILES beside them. Bounds are passed on as bounds.

In data set [1] the test system is HIV-1 positive sera. Briefly: ELISA, single peptides identifying HIV-1 positive sera. Conditions: single gp41 or gp120 peptide. The format is binding, human. The protocol: (§1) According to this test a peptide or a peptide mixture of the present invention is adsorbed onto the wells of a microtiter plate. The wells are then treated with sera to be tested. After washing, anti-human IgG labeled with peroxidase is added to the wells. The determination of the peroxidase is performed with a corresponding substrate, e.g. with o-phenylene diamine. Also in this procedure the peroxidase can be exchanged by another label, e.g. by a radioactive or fluorescence label.
(§2) Each well of the microtiter plate is saturated with 100 µl of a solution containing a peptide or mixture of peptides (5 µg/ml) and left overnight. The wells are emptied and washed twice with a washing buffer (Tris, 0.043M; NaCl, 0.5M;thimerosal, 0.01% w/v; Tween 20, 0.05% v/v; pH 7.4). The wells are then saturated with […] of washing buffer for 1 hr. at 37°C and washed once with the same buffer. Serum samples to be analyzed are diluted with specimen buffer (washing buffer plus casein, 0.05% w/v). The bells are rinsed with washing buffer prior to the addition of the diluted serum sample (0.1 ml). These are left to incubate for 1 hr. at room temperature. The wells are then emptied, washed twice rapidly and then once for two minutes with washing buffer. […] The wells are then emptied and washed twice rapidly with washing buffer and then five times in which the buffer was in contact with the well 2 minutes per washing. The substrate solution (3,3', 5,5'-tetramethylbenzidine, 8 mg per ml of DMSO) is diluted with 100 volumes 0.1 M citrate-acetate buffer, pH 5.6 containing 0.1% v/v of 30% H2O2 and added to each well (0.1 ml per well). After 10 minutes the contents of each well is treated with 0.1 ml 2N H2SO4 and the optical density read at 450 nm. All determinations are done in duplicate.
In general terms: An ELISA detects its analyte on a solid surface through an enzyme-linked reagent.

The test system of data set [2] is HIV-1-antibodies. Briefly: ELISA optical density of serially diluted sera, cyclic versus non-cyclic peptides. Type of data set: binding, human. Conditions: coated at 0.5 µg/ml.
Source text: TABLE 5 is provided to illustrate the sensitivity of cyclic versus non-cyclic peptides in the ELISA test by comparing the results of some sera at various dilutions.
Even though results presented in TABLE 5 clearly show the superiority of cyclic peptides over their linear counterpart in detecting HIV-1-antibodies, that increased sensitivity could have been underestimated because of probable cyclization and polymerization of the linear peptide after solubilization in a carbonate buffer (pH 9.6). That experiment was repeated with the linear 87 and cyclic 87c peptides dissolved in a carbonate buffer (pH 9.6) as before and also in 10% acetic acid (pH 2.7). […] It is believed that cyclization and polymerization also occured in the wells of the microtiter plates although the exact proportion of cyclic peptide bound to the plates versus linear has not been as yet determined. […]
as §2

The test system of data set [3] is HIV-1 positive serum samples. Briefly: ELISA serum titers on plates coated with cyclic versus linear peptide. Type of data set: binding, human. The settings on record: for serum titer (serum dilution giving an absorbancy reading of 1.0): coated at 10 µg/ml.
Source text: (§3) Even though results presented in TABLE 5 clearly show the superiority of cyclic peptides over their linear counterpart in detecting HIV-1-antibodies, that increased sensitivity could have been underestimated because of probable cyclization and polymerization of the linear peptide after solubilization in a carbonate buffer (pH 9.6). That experiment was repeated with the linear 87 and cyclic 87c peptides dissolved in a carbonate buffer (pH 9.6) as before and also in 10% acetic acid (pH 2.7). […] It is believed that cyclization and polymerization also occured in the wells of the microtiter plates although the exact proportion of cyclic peptide bound to the plates versus linear has not been as yet determined.
Plates used in this experiment were coated with solutions of peptides at 10 µg/ml. (Experimental results of TABLE 5 were obtained with plates coated with peptides at 0.5 µg/ml). Four different HIV-1 positive serum samples were serially diluted and their titers determined. The titer was defined as the serum dilution giving an absorbancy reading of 1.0 in the conditions of the ELISA procedure already described.
The ratios of sensitivities measured with the cyclic peptide over the linear 87 peptide vary between 1.3 and 2.2 with an average of 1.8. These ratios are even larger, varying from 3.0 to 4.5, when the sensitivity of the ELISA test using the cyclic 87c peptide is compared using conditions (acidic pH) where the linear 87 peptide remains linear and is not allowed to cyclize or polymerize.
as §2

Data set [4] in a line: Stability of linear and cyclic peptide in coating buffers (HPLC, Ellman's test). The format is physicochemical. The settings on record: 10% acetic acid (pH 2.7).
Source text: as §3
Background: Ellman's reagent forms a yellow product with free thiols.

Data set [5] concerns HIV-2 positive sera. Briefly: ELISA, single peptides identifying HIV-2 positive sera. Type of data set: binding, human. The settings on record: single peptide. The protocol: as §1, with “A preferred convenient and classical technique for the determination of antibodies against AIDS virus using a peptide or a peptide mixture of the present invention is an enzyme-linked immunosorbent assay (ELISA). According” for “According”, “label. […]” for “label.”
TABLE 4 provides the results of single peptides which were individually evaluated in identifying known HIV-2 positive sera.
Each well of the microtiter plate is saturated with 100 µl of a solution containing a peptide or mixture of peptides (5 µg/ml) and left overnight. […] Serum samples to be analyzed are diluted with specimen buffer (washing buffer plus casein, 0.05% w/v). […] After 10 minutes the contents of each well is treated with 0.1 ml 2N H2SO4 and the optical density read at 450 nm. […]

On to `CC[C@H](C)[C@H](NC(=O)CNC(=O)[C@H](CC(C)C)NC(=O)[C@H](CC(C)C)NC(=O)[C@H](CCC(N)=O)NC(=O)[C@H](CCC(N)=O)NC(=O)[C@H](CC(=O)O)NC(=O)[C@H](CCCCN)NC(=O)[C@H](CC(C)C)NC(=O)[C@H](Cc1ccc(O)cc1)NC(=O)[C@H](CCCNC(=N)N)NC(=O)[C@H](CCC(=O)O)NC(=O)[C@@H](NC(=O)[C@H](C)NC(=O)[C@H](CC(C)C)NC(=O)[C@@H](NC(=O)[C@@H](N)CCCNC(=N)N)[C@@H](C)CC)C(C)C)C(=O)N[C@@H](Cc1c[nH]c2ccccc12)C(=O)NCC(=O)N[C@H]1CSSC[C@@H](C(=O)N[C@H](C(=O)N[C@H](C(=O)N[C@@H](C)C(=O)N[C@H](C(=O)N2CCC[C@H]2C(=O)N[C@@H](Cc2c[nH]c3ccccc23)C(=O)N[C@@H](CC(N)=O)C(=O)N[C@@H](C)C(=O)N[C@@H](CO)C(=O)O)C(C)C)[C@@H](C)O)[C@@H](C)O)NC(=O)[C@H]([C@@H](C)CC)NC(=O)[C@H](CC(C)C)NC(=O)[C@H](CCCCN)NC(=O)CNC(=O)[C@H](CO)NC1=O` [Peptide 87c] (H-RILAVERYLKDQQLLGIWGCSGKLICTTAVPWNAS-OH; disulfide 20-26), for which the “% Positive Sera correctly Idenfitied” value in data set [1] is 99%. For the same compound, the “Relative performance in ELISA (optical density)” value (from here on “Relative performance in ELISA”) in data set [2] (serum 87V103, dilution 1/50) is recorded as 0.011 optical density units; in data set [2] (serum 1428, dilution 1/50), over 2.0 optical density units; in data set [2] (serum M-5, dilution 1 50), over 2.0 optical density units; in data set [2] (serum M-5, dilution 1/100), over 2.0 optical density units; in data set [2] (serum M-5, dilution 1/200), over 2.0 optical density units; in data set [2] (serum M-5, dilution 1/400), over 2.0 optical density units. The “Relative performance in ELISA” value in data set [2] (serum M-5, dilution 1/800) is reported as 1.854 optical density units; in data set [2] (serum M-7, dilution 1/50) it was over 2.0 optical density units; in data set [2] (serum M-7, dilution 1/100) it was over 2.0 optical density units; in data set [2] (serum M-7, dilution 1/200) it was 1.729 optical density units; in data set [2] (serum M-7, dilution 1/400), 1.348 optical density units; in data set [2] (serum M-7, dilution 1/800), 0.611 optical density units. In addition, the “Relative performance in ELISA” value is listed as over 2.0 optical density units in data set [2] (serum M-8, dilution 1/50); over 2.0 optical density units in data set [2] (serum M-8, dilution 1/100); 1.655 optical density units in data set [2] (serum M-8, dilution 1/200); 1.064 optical density units in data set [2] (serum M-8, dilution 1/400); 0.384 optical density units in data set [2] (serum M-8, dilution 1/800); over 2.0 optical density units in data set [2] (serum M-16, dilution 1/50). The “Relative performance in ELISA” value is on record as over 2.0 optical density units in data set [2] (serum M-16, dilution 1/100); over 2.0 optical density units in data set [2] (serum M-16, dilution 1/200); over 2.0 optical density units in data set [2] (serum M-16, dilution 1/400); 1.962 optical density units in data set [2] (serum M-16, dilution 1/800). Also, the “A B (titer 87c cyclic over titer 87 linear)” value in data set [3] (10% Acetic Acid (pH 2.7), serum M-5) turned out to be 3.0; in data set [3] (10% Acetic Acid (pH 2.7), serum M-7), 3.9; in data set [3] (10% Acetic Acid (pH 2.7), serum M-8), 4.5; in data set [3] (10% Acetic Acid (pH 2.7), serum M-16) it was 3.7; in data set [3] (Carbonate Bicarbonate 0.1M (pH 9.6), serum M-5) it was 1.3; in data set [3] (Carbonate Bicarbonate 0.1M (pH 9.6), serum M-7), 1.8. In addition, the “A B (titer 87c cyclic over titer 87 linear)” value amounted to 2.2 in data set [3] (Carbonate Bicarbonate 0.1M (pH 9.6), serum M-8) and 1.7 in data set [3] (Carbonate Bicarbonate 0.1M (pH 9.6), serum M-16). Besides, the “ratios of sensitivities measured with the cyclic peptide over the linear 87 peptide, average” value in data set [3] (carbonate buffer (pH 9.6), average over four sera) is 1.8. The “serum titer (serum dilution giving an absorbancy reading of 1.0)” value is on record as 13 500 in data set [3] (coating buffer 10% Acetic Acid (pH 2.7), serum M-5); 9 000 in data set [3] (coating buffer 10% Acetic Acid (pH 2.7), serum M-7); 6 300 in data set [3] (coating buffer 10% Acetic Acid (pH 2.7), serum M-8); 56 000 in data set [3] (coating buffer 10% Acetic Acid (pH 2.7), serum M-16); 13 500 in data set [3] (coating buffer Carbonate Bicarbonate 0.1M (pH 9.6), serum M-5); 11 000 in data set [3] (coating buffer Carbonate Bicarbonate 0.1M (pH 9.6), serum M-7). Also, the “serum titer (serum dilution giving an absorbancy reading of 1.0)” value is 6500 in data set [3] (coating buffer Carbonate Bicarbonate 0.1M (pH 9.6), serum M-8) and 56 000 in data set [3] (coating buffer Carbonate Bicarbonate 0.1M (pH 9.6), serum M-16). Also, the “stability in solution (HPLC, Ellman's test)” value in data set [4] is given as “remained cyclic”.
`CC[C@H](C)[C@H](NC(=O)[C@H](CCC(=O)O)NC(=O)[C@@H](NC(=O)[C@@H](N)CC(C)C)C(C)C)C(=O)N[C@H](C(=O)N1CCC[C@H]1C(=O)N[C@H](C(=O)NCC(=O)N[C@@H](Cc1ccccc1)C(=O)N[C@@H](C)C(=O)N1CCC[C@H]1C(=O)N[C@H](C(=O)N[C@@H](CCCCN)C(=O)N[C@@H](CCC(=O)O)C(=O)N[C@@H](CCCCN)C(=O)N[C@@H](CCCNC(=N)N)C(=O)N[C@@H](Cc1ccc(O)cc1)C(=O)N[C@@H](CO)C(=O)N[C@@H](CO)C(=O)N[C@@H](C)C(=O)N[C@@H](Cc1c[nH]cn1)C(=O)NCC(=O)N[C@@H](CCCNC(=N)N)C(=O)O)[C@@H](C)O)[C@@H](C)CC)[C@@H](C)O` [Peptide 203]: the “%Positive sera correctly Identified” value in data set [5] turned out to be 100%.
